Several values for one entry are separate records, joined by “and”; a condition that tells them apart may be missing. Identical values can stand only once. Like-named read-outs stand apart in the source and are kept apart here.
How the values were obtained:
S. aureus Newman [1] = test: Antimicrobial assay (bacterial growth in BHI broth); assay type: cell-based, Staphylococcus aureus; conditions: overnight in BHI broth, allantodapsone up to 100 μM, versus vehicle control
Method: S. aureus was grown in BHI broth shaking overnight at 37°C in the presence of a range of concentrations of allantodapsone, dapsone, or ampicillin as control. Absorbance was measured the following day at 570 nm. Data have been normalized to the relevant vehicle control (1% DMSO for allantodapsone and dapsone and water for ampicillin). […] Error bars represent SEM.
S. aureus was grown overnight in BHI broth at 37°C in shaking incubator. Wells were inoculated with 10 μL of overnight culture into 90 μL of broth containing the test compounds or controls. A growth control containing no agents was used (positive control), a sterility control of broth alone was included, and vehicle controls were included for each test compound. Plates were incubated overnight at 37°C and absorbance measured at 570 nm the following day using a Wallac Victor2, (Shelton, CT, USA).

S. aureus Newman [2] = test: Adhesion of S. aureus Newman to immobilized fibrinogen (crystal violet); assay type: cell-based, Staphylococcus aureus
Method: (§1) FIG 1 Allantodapsone inhibits S. aureus Newman adhesion to fibrinogen. Dose response curves for S. aureus Newman (A), L. lactis ClfA (B), and L. lactis ClfB (C) adhesion to fibrinogen. Fibrinogen was used to coat plates at 4°C overnight at 10 μg/mL. Wells were washed with PBS and blocked with 1% BSA. Washed bacteria (OD600 of 1) were mixed with the relevant concentration of allantodapsone or vehicle control (DMSO) for 5 min, and added to the wells, incubating for 2 h at 37°C. Adherent cells were washed, fixed, and stained with crystal violet, and wells further washed. The dye was dissolved in acetic acid and the absorbance measured at 570 nm. IC50 values were generated using GraphPad Prism 9.0 GraphPad software, San Diego, CA. Data are representative of three experiments with error presented as SEM.
FIG 2 Allantodapsone inhibits S. aureus adhesion to fibrinogen. (A) S. aureus Newman stationary phase and (B) exponential phase. (C) S. aureus SH1000 stationary phase and (D) exponential phase bacteria. Fibrinogen was used to coat plates at 4°C overnight at 10 μg/mL. Wells were washed with PBS and blocked with 1% BSA. Washed bacteria (OD600 of 1) were mixed with the relevant concentration of allantodapsone or vehicle control for 5 min, and added to the wells, incubating for 2 h at 37°C. Adherent cells were washed, fixed, and stained with crystal violet, and wells further washed. The dye was dissolved in acetic acid and the absorbance measured at 570 nm. Compounds were screened at a concentration of 70 μM and compared to their vehicle control. Statistical analysis was carried out using repeated measures ANOVA followed by multiple comparisons Dunnett’s tests using GraphPad PRISM. **, P ≤ 0.01; ***, P ≤ 0.001; ****, P ≤ 0.0001 (n = 3).
(§2) Adhesion assays were carried out according to Hartford et al. ([37]). Briefly, plates were coated with 10 μg/mL fibrinogen (Calbiochem, Darmstadt, Germany) or 20 μg/mL fibronectin (Sigma-Aldrich, Ireland) for 2 h at 37°C or for 16 h at 4°C. Plates were blocked with 1% BSA at 37°C for 1 h and washed 3 times in PBS. Washed bacteria were incubated at 37°C for 2 h. Adherent bacteria were washed three times in PBS and fixed in 5–9% formaldehyde at room temperature for 30 min. Wells were washed three times in PBS and stained using 5% crystal violet for 20 min. Wells were washed three times in PBS, and the crystal violet solubilized using 5% acetic acid. Plates were read at 570 nm on a Wallac Victor2, (Shelton, CT, USA). The minimum adhesion inhibitory concentration (MAIC) was determined as the concentration inhibiting greater than 90% bacterial adhesion.
Compounds were added to the bacterial suspension prior to addition to the wells. In each experiment, vehicle controls were prepared using the same volume of vehicle for the matching test compound.

S. aureus SH1000 = test: Adhesion of S. aureus SH1000 to fibronectin; assay type: cell-based, Staphylococcus aureus; conditions: fibronectin 20 μg/mL, Fig. S2
Method: as §2, with “adhesion. […]” for “adhesion.”
fibronectin. Fibronectin was used to coat plates at 4 °C overnight at 20 μg/mL.
Wells were washed with PBS and blocked with 1% BSA. Washed bacteria (OD600 of 1) were added with the relevant concentration of allantodapsone or vehicle control, and incubated for 2 hours at 37 °C. Adherent cells were washed, fixed, stained with crystal violet and wells further washed. The dye was dissolved in acetic acid and the absorbance measured at 570 nm. […]

L. lactis ClfB = test: Adhesion of L. lactis ClfB to immobilized fibrinogen; assay type: cell-based, Lactococcus lactis
Method: as §1
Adhesion assays were carried out according to Hartford et al. ([37]). Briefly, plates were coated with 10 μg/mL fibrinogen (Calbiochem, Darmstadt, Germany) or 20 μg/mL fibronectin (Sigma-Aldrich, Ireland) for 2 h at 37°C or for 16 h at 4°C. Plates were blocked with 1% BSA at 37°C for 1 h and washed 3 times in PBS. Washed bacteria were incubated at 37°C for 2 h. […] Plates were read at 570 nm on a Wallac Victor2, (Shelton, CT, USA). The minimum adhesion inhibitory concentration (MAIC) was determined as the concentration inhibiting greater than 90% bacterial adhesion. […]

How did the “inhibition of bacterial growth (words)” value (S. aureus Newman [1]) turn out when `Nc1ccc(S(=O)(=O)c2ccc(NCN3C(=O)NC(=O)C(=O)C3=O)cc2)cc1` [Allantodapsone] was run?
Its value is “does not inhibit bacterial growth”.

What about the “inhibition of bacterial growth (words)” value (S. aureus Newman [1]; listed as allantodapsone) of the same compound?
Its value is “no inhibition of bacterial growth”.

What about the “minimum adhesion inhibitory concentration (MAIC)” value (S. aureus Newman [2]; S. aureus Newman stationary phase, concentration inhibiting greater than 90% adhesion to fibrinogen) of the same compound?
The value was 100 μM and 40.2 μg/mL.

And the “inhibition of adhesion to fibrinogen” value (S. aureus Newman [2]; S. aureus Newman, stationary and exponential phase, compounds screened at 70 μM (Fig. 2))?
Its value is “inhibited”.

And the IC50 (S. aureus Newman [2]; Staphylococcus aureus, NEWMAN, read-out: IC50, inhibition of adhesion to fibrinogen, S. aureus Newman exponential phase)?
Its IC50 is 32.8 µM.

And the IC50 (S. aureus Newman [2]; Staphylococcus aureus, NEWMAN, read-out: IC50, inhibition of adhesion to fibrinogen, S. aureus Newman stationary phase, fibrinogen 10 μg/mL)?
Its IC50 is 23 µM.

What about the IC50 (S. aureus Newman [2]; read-out: IC50, inhibition of adhesion to fibrinogen, S. aureus Newman stationary phase, fibrinogen 10 μg/mL) of the same compound?
The IC50 was 21.3 µM.

What about the “inhibition of adhesion to fibronectin (words)” value (S. aureus SH1000) of the same compound?
Its value is “does not inhibit”.

What about the “inhibition of adhesion to fibronectin (words)” value (S. aureus SH1000; listed as allantodapsone) of the same compound?
Its value is “did not inhibit”.

And the “minimum adhesion inhibitory concentration (MAIC)” value (L. lactis ClfB; L. lactis ClfB, fibrinogen)?
The value was 33 μM and 13.3 μg/mL.

What about the IC50 (L. lactis ClfB; Lactococcus lactis, read-out: IC50, inhibition of adhesion to fibrinogen) of the same compound?
The IC50 was 11 µM.
